Source: BindingDB's records for doi:10.1016/s0960-894x(02)00205-6 (Southern Methodist University, 2002)

Assay: Inhibitory activity against class A TEM-1 beta-lactamase

Row | SMILES | IC50
1 | O=C(O)C1=CCS(=O)(=O)[C@@H]2/C(=C\c3ccccn3)C(=O)N12 [Sodium; (R)-5,5,8-trioxo-7-[1-pyridin-2-yl-meth-(Z)-ylidene]-5lambda*6*-thia-1-aza-bicyclo[4.2.0]oct-2-ene-2-carboxylate] | 18500 nM
2 | O=C(O)C1=C(Sc2ccccc2)CS(=O)(=O)[C@@H]2/C(=C\c3ccccn3)C(=O)N12 [Sodium; (R)-5,5,8-trioxo-3-phenylsulfanyl-7-[1-pyridin-2-yl-meth-(Z)-ylidene]-5lambda*6*-thia-1-aza-bicyclo[4.2.0]oct-2-ene-2-carboxylate] | 12 nM
3 | NCCCNC(=O)/C=C/C1=C(C(=O)O)N2C(=O)/C(=C/c3ccccn3)[C@H]2S(=O)(=O)C1 [Sodium; (R)-3-[(E)-2-(3-amino-propylcarbamoyl)-vinyl]-5,5,8-trioxo-7-[1-pyridin-2-yl-meth-(Z)-ylidene]-5lambda*6*-thia-1-aza-bicyclo[4.2.0]oct-2-ene-2-carboxylate] | 1590 nM
4 | O=C(O)C1=C(Cl)CS(=O)(=O)[C@@H]2/C(=C\c3ccccn3)C(=O)N12 [Sodium; (R)-3-chloro-5,5,8-trioxo-7-[1-pyridin-2-yl-meth-(Z)-ylidene]-5lambda*6*-thia-1-aza-bicyclo[4.2.0]oct-2-ene-2-carboxylate] | 1820 nM
5 | N=C(N)NCCNC(=O)C=CC1=C(C(=O)O)N2C(=O)C(=Cc3ccccn3)[C@H]2S(=O)(=O)C1 [Sodium; (R)-3-[(E)-2-(2-guanidino-ethylcarbamoyl)-vinyl]-5,5,8-trioxo-7-[1-pyridin-2-yl-meth-(Z)-ylidene]-5lambda*6*-thia-1-aza-bicyclo[4.2.0]oct-2-ene-2-carboxylate] | 8.3 nM
6 | O=C(O)C1=C(F)CS(=O)(=O)[C@@H]2/C(=C\c3ccccn3)C(=O)N12 [Sodium; (R)-3-fluoro-5,5,8-trioxo-7-[1-pyridin-2-yl-meth-(Z)-ylidene]-5lambda*6*-thia-1-aza-bicyclo[4.2.0]oct-2-ene-2-carboxylate] | 1840 nM
7 | O=C(O)C1=C(C(=O)O)N2C(=O)/C(=C/c3ccccn3)[C@H]2S(=O)(=O)C1 [Disodium; (R)-3-carboxy-5,5,8-trioxo-7-[1-pyridin-2-yl-meth-(Z)-ylidene]-5lambda*6*-thia-1-aza-bicyclo[4.2.0]oct-2-ene-2-carboxylate] | 10400 nM
8 | O=C(O)C1=C(S(=O)(=O)c2ccccc2)CS(=O)(=O)[C@@H]2/C(=C\c3ccccn3)C(=O)N12 [Sodium; (R)-3-benzenesulfonyl-5,5,8-trioxo-7-[1-pyridin-2-yl-meth-(Z)-ylidene]-5lambda*6*-thia-1-aza-bicyclo[4.2.0]oct-2-ene-2-carboxylate] | 9.4 nM
9 | NC(=O)/C=C/C1=C(C(=O)O)N2C(=O)/C(=C/c3ccccn3)[C@H]2S(=O)(=O)C1 [Sodium; (R)-3-((E)-2-carbamoyl-vinyl)-5,5,8-trioxo-7-[1-pyridin-2-yl-meth-(Z)-ylidene]-5lambda*6*-thia-1-aza-bicyclo[4.2.0]oct-2-ene-2-carboxylate] | 262 nM
10 | O=C(O)C1=C(c2ccccc2)CS(=O)(=O)[C@@H]2/C(=C\c3ccccn3)C(=O)N12 [Sodium; (R)-5,5,8-trioxo-3-phenyl-7-[1-pyridin-2-yl-meth-(Z)-ylidene]-5lambda*6*-thia-1-aza-bicyclo[4.2.0]oct-2-ene-2-carboxylate] | 9140 nM
11 | O=C(O)C1=C(Br)CS(=O)(=O)[C@@H]2/C(=C\c3ccccn3)C(=O)N12 [Sodium; (R)-3-bromo-5,5,8-trioxo-7-[1-pyridin-2-yl-meth-(Z)-ylidene]-5lambda*6*-thia-1-aza-bicyclo[4.2.0]oct-2-ene-2-carboxylate] | 791 nM
12 | CS(=O)(=O)C1=C(C(=O)O)N2C(=O)/C(=C/c3ccccn3)[C@H]2S(=O)(=O)C1 [Sodium; (R)-3-methanesulfonyl-5,5,8-trioxo-7-[1-pyridin-2-yl-meth-(Z)-ylidene]-5lambda*6*-thia-1-aza-bicyclo[4.2.0]oct-2-ene-2-carboxylate] | 7.6 nM
13 | NNC(=O)/C=C/C1=C(C(=O)O)N2C(=O)/C(=C/c3ccccn3)[C@H]2S(=O)(=O)C1 [Sodium; (R)-3-((E)-2-hydrazinocarbonyl-vinyl)-5,5,8-trioxo-7-[1-pyridin-2-yl-meth-(Z)-ylidene]-5lambda*6*-thia-1-aza-bicyclo[4.2.0]oct-2-ene-2-carboxylate] | 390 nM
14 | O=C(/C=C/C1=C(C(=O)O)N2C(=O)/C(=C/c3ccccn3)[C@H]2S(=O)(=O)C1)NCCO [Sodium; (R)-3-[(E)-2-(2-hydroxy-ethylcarbamoyl)-vinyl]-5,5,8-trioxo-7-[1-pyridin-2-yl-meth-(Z)-ylidene]-5lambda*6*-thia-1-aza-bicyclo[4.2.0]oct-2-ene-2-carboxylate] | 70 nM
15 | O=C(/C=C/C1=C(C(=O)O)N2C(=O)/C(=C/c3ccccn3)[C@H]2S(=O)(=O)C1)NC1CC1 [Sodium; (R)-3-((E)-2-cyclopropylcarbamoyl-vinyl)-5,5,8-trioxo-7-[1-pyridin-2-yl-meth-(Z)-ylidene]-5lambda*6*-thia-1-aza-bicyclo[4.2.0]oct-2-ene-2-carboxylate] | 240 nM
16 | O=C(O)C1=C(c2cccs2)CS(=O)(=O)[C@@H]2/C(=C\c3ccccn3)C(=O)N12 [Sodium; (R)-5,5,8-trioxo-7-[1-pyridin-2-yl-meth-(Z)-ylidene]-3-thiophen-2-yl-5lambda*6*-thia-1-aza-bicyclo[4.2.0]oct-2-ene-2-carboxylate] | 3540 nM
17 | O=C(/C=C/C1=C(C(=O)O)N2C(=O)/C(=C/c3ccccn3)[C@H]2S(=O)(=O)C1)NO [Sodium; (R)-3-((E)-2-hydroxycarbamoyl-vinyl)-5,5,8-trioxo-7-[1-pyridin-2-yl-meth-(Z)-ylidene]-5lambda*6*-thia-1-aza-bicyclo[4.2.0]oct-2-ene-2-carboxylate] | 7690 nM
18 | O=C(/C=C/C1=C(C(=O)O)N2C(=O)/C(=C/c3ccccn3)[C@H]2S(=O)(=O)C1)Nc1c(F)c(F)c(F)c(F)c1F [Sodium; (R)-5,5,8-trioxo-3-((E)-2-pentafluorophenylcarbamoyl-vinyl)-7-[1-pyridin-2-yl-meth-(Z)-ylidene]-5lambda*6*-thia-1-aza-bicyclo[4.2.0]oct-2-ene-2-carboxylate] | 4280 nM
19 | O=C(/C=C/C1=C(C(=O)O)N2C(=O)/C(=C/c3ccccn3)[C@H]2S(=O)(=O)C1)NCc1ccccc1 [Sodium; (R)-3-((E)-2-benzylcarbamoyl-vinyl)-5,5,8-trioxo-7-[1-pyridin-2-yl-meth-(Z)-ylidene]-5lambda*6*-thia-1-aza-bicyclo[4.2.0]oct-2-ene-2-carboxylate] | 1400 nM
20 | O=C(/C=C/C1=C(C(=O)O)N2C(=O)/C(=C/c3ccccn3)[C@H]2S(=O)(=O)C1)Nc1ccc(O)cc1 [Sodium; (R)-3-[(E)-2-(4-hydroxy-phenylcarbamoyl)-vinyl]-5,5,8-trioxo-7-[1-pyridin-2-yl-meth-(Z)-ylidene]-5lambda*6*-thia-1-aza-bicyclo[4.2.0]oct-2-ene-2-carboxylate] | 110 nM
21 | CSC1=C(C(=O)O)N2C(=O)/C(=C/c3ccccn3)[C@H]2S(=O)(=O)C1 [Sodium; (R)-3-methylsulfanyl-5,5,8-trioxo-7-[1-pyridin-2-yl-meth-(Z)-ylidene]-5lambda*6*-thia-1-aza-bicyclo[4.2.0]oct-2-ene-2-carboxylate] | 1060 nM
22 | CN1CCN(C(=O)/C=C/C2=C(C(=O)O)N3C(=O)/C(=C/c4ccccn4)[C@H]3S(=O)(=O)C2)CC1 [Sodium; (R)-3-[(E)-3-(4-methyl-piperazin-1-yl)-3-oxo-propenyl]-5,5,8-trioxo-7-[1-pyridin-2-yl-meth-(Z)-ylidene]-5lambda*6*-thia-1-aza-bicyclo[4.2.0]oct-2-ene-2-carboxylate] | 53 nM
23 | O=C(/C=C/C1=C(C(=O)O)N2C(=O)/C(=C/c3ccccn3)[C@H]2S(=O)(=O)C1)NCC(F)(F)F [Sodium; (R)-5,5,8-trioxo-7-[1-pyridin-2-yl-meth-(Z)-ylidene]-3-[(E)-2-(2,2,2-trifluoro-ethylcarbamoyl)-vinyl]-5lambda*6*-thia-1-aza-bicyclo[4.2.0]oct-2-ene-2-carboxylate] | 78 nM
24 | O=C(O)C1=C(I)CS(=O)(=O)[C@@H]2/C(=C\c3ccccn3)C(=O)N12 [Sodium; (R)-3-iodo-5,5,8-trioxo-7-[1-pyridin-2-yl-meth-(Z)-ylidene]-5lambda*6*-thia-1-aza-bicyclo[4.2.0]oct-2-ene-2-carboxylate] | 1280 nM
